Legend:
[1] = tested on: β-glucosidases; conditions: Legler & Pohl, 1986; cited from earlier work
[2] = tested on: glycolipid biosynthesis in HL-60 cells; experiment: Inhibition of glycolipid biosynthesis in HL-60 cells, [14C]-palmitic acid labelling, 1D-TLC; type: cell-based, human;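 further: cells cultured 24 h with or without test compound, total cellular lipids resolved by one-dimensional TLC and detected by autoradiography, inhibition shown as missing Glc-Cer and gangliosides versus untreated cells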
[3] = tested on: glycolipid and phospholipid species in HL-60 cells; experiment: 2D-TLC analysis of total HL-60 lipids labelled with [14C]-palmitic acid; type: cell-based, human; conditions: 2D-TLC (FIG. 2)
Procedure: 2D-TLC separation was made of total HL-60 lipids labelled with [^14 C]-palmitic acid. Cells were treated with either 0.5 mM NB-DNJ or NB-DGJ or untreated (UT). Lipids were assigned as follows (untreated cells, lefthand panel, FIG. 2A): 1, gangliosides; 2, lysophospatidylcholine; 3, ceramide phosphorylcholine; 4, ceramide phosphorylethanolamine; 5, phospatidylcholine; 6, phosphatidylinositol; 7, phosphatidylethanolamine; 8, phosphatidylglycerol; 9, diglycosylceramide; 10, monoglycosylceramide; 11, cholesterol/fatty acids/neutral lipids; N and N* are unknowns; and 0 is the sample origin. Following NB-DNJ and NB-DGJ treatment (middle and righthand panels, FIGS. 2B and 2C, respectively) species 1 (gangliosides);9 (diglycosylceramide); 10 (monoglycosylceramide) and N* (unknown) were absent. The radiolabelled lipids were visualized by autoradiography.
HL-60 cells were cultured by conventional procedure as previously described by Platt et al., Eur. J. Biochem. 208, 187-193 (1992). HL-60 cells at 5×10^4 cells/ml were cultured in the presence or absence of imino sugars for 24 hr. For labelling, the two dimensional thin layer chromatography (2D-TLC) conventional method of Butters and Hughes was followed [In Vitro 17, 831-838 (1981)]. Briefly, [^14 C]-palmitic acid (56.8 mCi/mmol, ICN/Flow) was added as a sonicated preparation in foetal calf serum (FCS, Techgen, London, U.K., 0.5 μCi/ml) and the cells cultured for a further 3 days maintaining the imino sugars in the medium. The cells were harvested, washed three times with phosphate buffered saline (PBS), extracted in 1 ml chloroform:methanol (2:1 v/v) and separated by 1 dimensional TLC, loading equal counts (1D-TLC, chloroform:methanol:water (65:25:4)). For two dimensional separations the one dimensional separation was performed as described above, the plate dried overnight under vacuum and separated in the second dimension using a solvent of tetrahydrofuran: dimethoxymethane:methanol:water (10:6:4:1). Plates were air dried and exposed to Hyperfilm-MP high performance autoradiography film (Amersham).

[4] = tested on: WEHI-3B cell lysosomes; experiment: Transmission electron microscopy of lysosomes of CBE treated WEHI-3B cells; type: cell-based, murine; conditions: transmission electron microscopy (FIG. 6)
[5] = tested on: N-linked oligosaccharide processing of gp120 in CHO cells (α-glucosidases I and II); experiment: Endo H sensitivity of gp120 expressed in CHO cells (N-linked oligosaccharide processing); type: cell-based, Chinese hamster; conditions: 0.5 mM or 5 mM (FIG. 7)
Procedure: The arrows indicate the molecular weight of the untreated gp120 (120 kDa) and post endo H digestion (60 kDa). An additional band of low molecular weight (approximately 60 kDa) was present in some lanes and is a non-specific protein precipitated by the solid phase matrix.
The culture of CHO cells expressing soluble recombinant gp120 (from Dr. P. Stevens, MRC AIDS Directed Programme Reagent Project) and the radiolabelling of these cells was carried out by conventional procedure as described by Karlsson et al., J. Biol. Chem. 268, 570-576 (1993). Briefly, CHO cells were harvested mechanically, washed three times with phosphate buffered saline, 0.1M pH 7.2 (PBS) and resuspended in methionine- and cysteine-free RPMI-1640 medium (ICN-Flow Laboratories, High Wycombe, Bucks, U.K.) supplemented with 1% dialysed FCS. Cells (10^7 /ml) were preincubated in the presence or absence of NB-DNJ or NB-DGJ for 1 hr prior to the addition of 100 μCi/ml Tran^35 S-label (ICN-Flow) for 4 hr. The supernatants were collected and concentrated tenfold using a 30 kDa cut-off membrane (Amicon, Danvers, Mass., U.S.A.).
Immunoprecipitations were performed by conventional procedure as described by Karlsson supra. Supernatants were incubated with the mAb ABT 1001 monoclonal antibody (American Biotechnologies Inc., Cambridge, Mass., U.S.A.) at 0.5 μg/100 μl of supernatant for 30 min. at room temperature followed by sheep anti-mouse IgG1-coated magnetic beads (Dynal Ltd., Wirral, Merseyside, U.K., 1.2×10^7 beads per sample) for 1 hr. at 4° C. The beads were washed three times with 2% TRITON® X-100 in PBS and three times with PBS. Gp120 was eluted in […] reducing SDS-PAGE sample buffer with heating (95° C., 5 min.). Each sample was divided into two equal aliquots and 25 μl of dH2 O added to give a final volume of 50 μl. To one half of each sample 2 μl of endoglycosidase H (endo H, 1 unit/ml, Boehringer Mannheim Ltd., Lewes, Sussex, U.K.) was added and the other half left untreated. […]

[6] = tested on: oligosaccharide biosynthesis in HL-60 cells; experiment: Glycopeptide analysis by Con A-SEPHAROSE chromatography, HL-60 cells; type: cell-based, human
[7] = tested on: oligosaccharide biosynthesis in BW5147 cells; experiment: Glycopeptide analysis by Con A-SEPHAROSE chromatography, BW5147 cells; type: cell-based, murine
[8] = molecular target: α-glucosidase I and II; experiment: Inhibition of purified processing α-glucosidase I and II; type: biochemical; conditions: mixture of purified α-glucosidases I and II
Procedure: Porcine liver α-glucosidase I and rat liver α-glucosidase II were purified to homogeneity and assayed by conventional procedure using a [^14 C]-glucose labelled Glc3 Man9 GlcNAc2 substrate as previously described by Karlsson et al., J. Biol. Chem. 268, 570-576 (1993).
Enzymes were assayed according to procedure described hereinbefore using
The data from FIG. 8 were […]

[9] = molecular target: UDP-glucose:N-acylsphingosine glucosyltransferase; experiment: Inhibition of UDP-glucose:N-acylsphingosine glucosyltransferase; type: biochemical, rat brain, mouse macrophage (WEHI-3B); conditions: rat brain or mouse macrophage homogenates; read-out: IC50
[10] = tested on: cholera toxin binding sites on H9 cells; type: cell-based, human; conditions: h9 cells, 4320 min
[11] = tested on: HL-60 cells; experiment: Cytotoxicity in the dose range tested; type: cell-based, human
[12] = tested on: N-linked oligosaccharide processing of gp120 in CHO cells (α-glucosidases I and II); conditions: previously tested [Karlsson et al.]; cited from earlier work
[13] = tested on: glucocerebrosidase in WEHI-3B cells; conditions: WEHI-3B cells in the absence of CBE; cited from earlier work
[14] = tested on: α-glucosidase I; conditions: cell culture systems, Karlsson et al.; cited from earlier work

**Q.** With `CCCCCCCN1C[C@H](O)[C@@H](O)[C@@H](O)[C@H]1CO` [N-heptyldeoxygalactonojirimycin] as the compound, how does the “affinity towards certain β-glucosidases” value [1] read?
**A.** The value was “modest increase in the affinity”.

**Q.** What does the source list for `CCCCN1C[C@H](O)[C@@H](O)[C@H](O)[C@H]1CO` [NB-DNJ, N-Butyldeoxynojirimycin]?
**A.** lipid species whose biosynthesis was inhibited ([2]; HL-60, 500 μM, 1D-TLC): inhibited the biosynthesis of Glc-Cer, gangliosides and an unknown lipid species; inhibition of glycolipid biosynthesis ([2]; HL-60, 500 μM, 1D-TLC (FIG. 1)): specifically inhibited glycolipid biosynthesis; effect of N-alkyl chain length on inhibition of glycolipid biosynthesis (loss of detectable Glc-Cer) ([2]; HL-60, 0.5 mM, 1D-TLC (FIG. 4)): completely inhibited glycolipid biosynthesis; minimal effective concentration ([2]; Homo sapiens, HL-60, 1D-TLC (FIG. 3), partial inhibition, read-out: concentrations as low as which partial inhibition occurred): 0.5 to 5 µM; gangliosides, unknown lipid (N*), mono and dihexaside species following treatment ([3]; HL-60, 0.5 mM): absent; depletion of glycolipid species ([3]; HL-60, 500 μM): total depletion of glycolipid species; glycolipid accumulation in lysosomes [4]: prevented the glycolipid accumulation; endo H sensitivity of gp120 N-linked glycans [5]: fully endo H sensitive; Total 3H-mannose recovered ([6]; HL-60): 913095 cpm; Bi-antennary ([6]; HL-60, percentage of radiolabelled glycopeptides eluted with 10 mM methylglucoside): 20.0%; Oligo-mannose & hybrid ([6]; HL-60, percentage of radiolabelled glycopeptides eluted with 500 mM methylmannoside): 60.5%; Tetra- & Tri-antennary ([6]; HL-60, percentage of radiolabelled glycopeptides non-bound): 19.5%; glycopeptide profile by Con A-SEPHAROSE chromatography ([6]; HL-60 and BW5147): changes the affinity of glycopeptides; proportion of unbound glycans (tetra- and tri-antennary species) ([6]; HL-60 and BW5147): decreases; proportion of high mannose/hybrid glycans tightly bound to Con A-SEPHAROSE ([6]; HL-60 and BW5147, eluted with 500 mM methylmannoside): increase; Total 3H-mannose recovered [7]: 686026 cpm; Bi-antennary ([7]; percentage of radiolabelled glycopeptides eluted with 10 mM methylglucoside): 4.9%; Oligo-mannose & hybrid ([7]; percentage of radiolabelled glycopeptides eluted with 500 mM methylmannoside): 68.3%; Tetra- & Tri-antennary ([7]; percentage of radiolabelled glycopeptides non-bound): 26.8%; IC50 [8]: 360 nM; IC50 [9]: 2950 nM; reduction in cholera toxin binding [10]: approximately 90%; cytotoxicity [11]: non-cytotoxic; endo H sensitivity of high mannose oligosaccharides on gp120 [12]: fully sensitive to endo H; Glc-Cer accumulation [13]: accumulated Glc-Cer; concentration for α-glucosidase I inhibition [14]: 0.5 mM

From US6291657A (priority 1993, dated 2001)
